Patent publication US11130778B2, “CD73 inhibitors” (ORIC Pharmaceuticals, Inc., priority 2019, dated 2021)

What follows are compounds tested against T1, CD73 (Homo sapiens, UniProt P21589) (assay: Biochemical assay of CD73 inhibition (Malachite Green)). Settings: CD73 0.3208 nM, AMP 15 μM, Tris-HCl pH 7.4, Malachite Green absorbance readout; read-out: CD73_Biochem.
T1 sequence (P21589 27-549): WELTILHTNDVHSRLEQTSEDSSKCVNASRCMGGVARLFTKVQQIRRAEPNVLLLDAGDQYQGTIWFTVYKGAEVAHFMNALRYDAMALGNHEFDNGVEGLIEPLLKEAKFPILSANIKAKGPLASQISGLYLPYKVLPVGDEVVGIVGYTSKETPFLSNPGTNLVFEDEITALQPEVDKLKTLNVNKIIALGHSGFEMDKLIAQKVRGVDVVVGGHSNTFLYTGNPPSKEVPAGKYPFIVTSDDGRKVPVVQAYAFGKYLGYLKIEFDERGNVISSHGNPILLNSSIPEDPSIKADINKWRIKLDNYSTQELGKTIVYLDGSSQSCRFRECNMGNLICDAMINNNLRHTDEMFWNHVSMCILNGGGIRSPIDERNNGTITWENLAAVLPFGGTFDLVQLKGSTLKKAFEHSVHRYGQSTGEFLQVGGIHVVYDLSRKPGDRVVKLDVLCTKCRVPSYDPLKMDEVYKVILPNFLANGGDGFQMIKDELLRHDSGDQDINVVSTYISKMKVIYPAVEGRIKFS
Protocol: Example A1: Biochemical Assay
Assay Reaction Conditions
• Assay Volume: 70 μl • Reaction Volume: 50 μl • CD73: 0.3208 nM • AMP:15 μM • Assay Buffer: 2 5 mM Tris-HCL, pH 7.4, 0.01% Brij-35, 0.01% BSA, 5 mM MgCl2 Assay Procedure:
Made dose titration of testing compounds in assay buffer, 10 points 1/2 log titrations in duplicates starting at 100 μM.
Added 25 µl of CD73 to each well for a final concentration of […].
Incubated at RT for 15 min.
Added 25 µl of AMP to each well for a final concentration of 15 μM.
Incubated at RT for 10 min.
Added […] of Malachite Green Reagent A, incubate at RT for 10 min.
Added […] of Malachite Green Reagent B, incubate at RT for 45 min.
Read the Absorbance on Envision plate reader using excitation filter: Cy5 […].
The ability of the compounds disclosed herein to inhibit CD73 activity was quantified and the respective IC50 values were determined. Table 2 provides the biochemical IC50 values of compounds disclosed herein.
`COCCOCC(COCc1nnn[nH]1)(OC[C@H]1O[C@@H](n2ncc3c(NC4CCCC4)nc(Cl)nc32)[C@H](O)[C@@H]1O)P(=O)(O)O` (single isomer, unassigned) [Example 1] was tested, and the IC50 was ≤ 0.01 µM. For `O=P(O)(O)[C@@](CO)(Cc1nn[nH]n1)OC[C@H]1O[C@@H](n2ncc3c(NCc4ccccc4Cl)nc(Cl)nc32)[C@H](O)[C@@H]1O` (single isomer, unassigned) [Example 3], the IC50 was ≤ 0.01 µM. `O=P(O)(O)[C@](CO)(Cc1nn[nH]n1)OC[C@H]1O[C@@H](n2ncc3c(NCc4ccccc4Cl)nc(Cl)nc32)[C@H](O)[C@@H]1O` (single isomer, unassigned) [Example 4] was tested, and the IC50 was 0.01 to 0.1 µM. With `O=P(O)(O)C(COCc1nnn[nH]1)(Cc1nnn[nH]1)OC[C@H]1O[C@@H](n2ncc3c(NC4CCCC4)nc(Cl)nc32)[C@H](O)[C@@H]1O` (stereo in doubt) [Example 41, ((S)-1-((1H-tetrazol-5-yl)methoxy)-2-(((2R,3S,4R,5R)-5-(6-chloro-4-(cyclopentylamino)-1H-pyrazolo[3,4-d]pyrimidin-1-yl)-3,4-dihydroxytetrahydrofuran-2-yl)methoxy)-3-(1H-tetrazol-5-yl)propan-2-yl)phosphonic acid] the IC50 was ≤ 0.01 µM. For `O=P(O)(O)C(COCc1nnn[nH]1)(Cc1nnn[nH]1)OC[C@H]1O[C@@H](n2ncc3c(NC4CCCC4)nc(Cl)nc32)[C@H](O)[C@@H]1O` (stereo in doubt) [Example 42, ((R)-1-((1H-tetrazol-5-yl)methoxy)-2-(((2R,3S,4R,5R)-5-(6-chloro-4-(cyclopentylamino)-1H-pyrazolo[3,4-d]pyrimidin-1-yl)-3,4-dihydroxytetrahydrofuran-2-yl)methoxy)-3-(1H-tetrazol-5-yl)propan-2-yl)phosphonic acid], the IC50 was ≤ 0.01 µM. In the case of `O=P(O)(O)C(COCc1nnn[nH]1)(COCC1CC1)OC[C@H]1O[C@@H](n2ncc3c(NC4CCCC4)nc(Cl)nc32)[C@H](O)[C@@H]1O` (stereo in doubt) [Example 44, ((R)-1-((1H-tetrazol-5-yl)methoxy)-2-(((2R,3S,4R,5R)-5-(6-chloro-4-(cyclopentylamino)-1H-pyrazolo[3,4-d]pyrimidin-1-yl)-3,4-dihydroxytetrahydrofuran-2-yl)methoxy)-3-(cyclopropylmethoxy)propan-2-yl)phosphonic acid], the IC50 is reported as ≤ 0.01 µM. For `O=P(O)(O)C(COCc1nnn[nH]1)(COCC1CC1)OC[C@H]1O[C@@H](n2ncc3c(NC4CCCC4)nc(Cl)nc32)[C@H](O)[C@@H]1O` (stereo in doubt) [Example 45, ((S)-1-((1H-tetrazol-5-yl)methoxy)-2-(((2R,3S,4R,5R)-5-(6-chloro-4-(cyclopentylamino)-1H-pyrazolo[3,4-d]pyrimidin-1-yl)-3,4-dihydroxytetrahydrofuran-2-yl)methoxy)-3-(cyclopropylmethoxy)propan-2-yl)phosphonic acid], the IC50 was ≤ 0.01 µM. For `O=P(O)(O)C(CO)(CCCc1nn[nH]n1)OC[C@H]1O[C@@H](n2ncc3c(NC4CCCC4)nc(Cl)nc32)[C@H](O)[C@@H]1O` (stereo partly drawn) [Example 5, (2-(((2R,3S,4R,5R)-5-(6-chloro-4-(cyclopentylamino)-1H-pyrazolo[3,4-d]pyrimidin-1-yl)-3,4-dihydroxytetrahydrofuran-2-yl)methoxy)-1-hydroxy-5-(2H-tetrazol-5-yl)pentan-2-yl)phosphonic acid], the IC50 was ≤ 0.01 µM. For `COCC(CCC(=O)O)(OC[C@H]1O[C@@H](n2ncc3c(NC4CCCC4)nc(Cl)nc32)[C@H](O)[C@@H]1O)P(=O)(O)O` (stereo partly drawn) [Example 6, 4-(((2R,3S,4R,5R)-5-(6-chloro-4-(cyclopentylamino)-1H-pyrazolo[3,4-d]pyrimidin-1-yl)-3,4-dihydroxytetrahydrofuran-2-yl)methoxy)-5-methoxy-4-phosphonopentanoic acid], the IC50 was ≤ 0.01 µM. For `COC[C@@](CC(=O)NO)(OC[C@H]1O[C@@H](n2ncc3c(NC4CCCC4)nc(Cl)nc32)[C@H](O)[C@@H]1O)P(=O)(O)O` [Example 7, ((S)-2-(((2R,3S,4R,5R)-5-(6-chloro-4-(cyclopentylamino)-1H-pyrazolo[3,4-d]pyrimidin-1-yl)-3,4-dihydroxytetrahydrofuran-2-yl)methoxy)-4-(hydroxyamino)-1-methoxy-4-oxobutan-2-yl)phosphonic acid], the IC50 was ≤ 0.01 µM. In the case of `COC[C@](CC(=O)NO)(OC[C@H]1O[C@@H](n2ncc3c(NC4CCCC4)nc(Cl)nc32)[C@H](O)[C@@H]1O)P(=O)(O)O` [Example 8, ((R)-2-(((2R,3S,4R,5R)-5-(6-chloro-4-(cyclopentylamino)-1H-pyrazolo[3,4-d]pyrimidin-1-yl)-3,4-dihydroxytetrahydrofuran-2-yl)methoxy)-4-(hydroxyamino)-1-methoxy-4-oxobutan-2-yl)phosphonic acid], the IC50 is reported as ≤ 0.01 µM. In the case of `COC[C@](Cc1nn[nH]n1)(OC[C@H]1O[C@@H](n2ncc3c(NC4CCC4)nc(CO)nc32)[C@H](O)[C@@H]1O)P(=O)(O)O` [Example 9, ((R)-2-(((2R,3S,4R,5R)-5-(4-(cyclobutylamino)-6-(hydroxymethyl)-1H-pyrazolo[3,4-d]pyrimidin-1-yl)-3,4-dihydroxytetrahydrofuran-2-yl)methoxy)-1-methoxy-3-(2H-tetrazol-5-yl)propan-2-yl)phosphonic acid], the IC50 is reported as ≤ 0.01 µM. Compound `COC[C@](COCC(=O)O)(OC[C@H]1O[C@@H](n2ncc3c(NC4CCCC4)nc(Cl)nc32)[C@H](O)[C@@H]1O)P(=O)(O)O` [Example 10] has an IC50 of 0.01 to 0.1 µM. With `COCC(CC(=O)NO)(OC[C@H]1O[C@@H](n2ncc3c(NC4CCCC4)nc(Cl)nc32)[C@H](O)[C@@H]1O)P(=O)(O)O` (stereo partly drawn) [Example 11, (2-(((2R,3S,4R,5R)-5-(6-chloro-4-(cyclopentylamino)-1H-pyrazolo[3,4-d]pyrimidin-1-yl)-3,4-dihydroxytetrahydrofuran-2-yl)methoxy)-4-(hydroxyamino)-1-methoxy-4-oxobutan-2-yl)phosphonic acid] the IC50 was ≤ 0.01 µM. `COCC(CC(=O)NS(C)(=O)=O)(OC[C@H]1O[C@@H](n2ncc3c(NC4CCCC4)nc(Cl)nc32)[C@H](O)[C@@H]1O)P(=O)(O)O` (stereo partly drawn) [Example 12, (2-(((2R,3S,4R,5R)-5-(6-chloro-4-(cyclopentylamino)-1H-pyrazolo[3,4-d]pyrimidin-1-yl)-3,4-dihydroxytetrahydrofuran-2-yl)methoxy)-1-methoxy-4-(methylsulfonamido)-4-oxobutan-2-yl)phosphonic acid] was tested, and the IC50 was ≤ 0.01 µM. `O=P(O)(O)C(CO)(Cc1c[nH]nn1)OC[C@H]1O[C@@H](n2ncc3c(NC4CCCC4)nc(Cl)nc32)[C@H](O)[C@@H]1O` (stereo partly drawn) [Example 13, (2-(((2R,3S,4R,5R)-5-(6-chloro-4-(cyclopentylamino)-1H-pyrazolo[3,4-d]pyrimidin-1-yl)-3,4-dihydroxytetrahydrofuran-2-yl)methoxy)-1-hydroxy-3-(1H-1,2,3-triazol-4-yl)propan-2-yl)phosphonic acid] gave an IC50 of 0.01 to 0.1 µM. In the case of `C[C@H]1CCC[C@@H]1Nc1nc(Cl)nc2c1cnn2[C@@H]1O[C@H](COC(CO)(CO)P(=O)(O)O)[C@@H](O)[C@H]1O` [Example 14, (2-(((2R,3S,4R,5R)-5-(6-chloro-4-(((1S,2S)-2-methylcyclopentyl)amino)-1H-pyrazolo[3,4-d]pyrimidin-1-yl)-3,4-dihydroxytetrahydrofuran-2-yl)methoxy)-1,3-dihydroxypropan-2-yl)phosphonic acid], the IC50 is reported as ≤ 0.01 µM. With `COCC(OC[C@H]1O[C@@H](n2ncc3c(NC4CCCC4)nc(Cl)nc32)[C@H](O)[C@@H]1O)(C(=O)N(C)C)P(=O)(O)O` (stereo partly drawn) [Example 15, (2-(((2R,3S,4R,5R)-5-(6-chloro-4-(cyclopentylamino)-1H-pyrazolo[3,4-d]pyrimidin-1-yl)-3,4-dihydroxytetrahydrofuran-2-yl)methoxy)-1-(dimethylamino)-3-methoxy-1-oxopropan-2-yl)phosphonic acid] the IC50 was 0.01 to 0.1 µM. For `CC(C)CNc1nc(Cl)nc2c1cnn2[C@@H]1O[C@H](COC(CO)(Cc2nn[nH]n2)P(=O)(O)O)[C@@H](O)[C@H]1O` (stereo partly drawn) [Example 16, (2-(((2R,3S,4R.,5R)-5-(6-chloro-4-(isobutylamino)-1H-pyrazolo[3,4-d]pyrimidin-1-yl)-3,4-dihydroxytetrahydrofuran-2-yl)methoxy)-1-hydroxy-3-(2H-tetrazol-5-yl)propan-2-yl)phosphonic acid], the IC50 was ≤ 0.01 µM. `O=P(O)(O)C(CO)(Cc1nn[nH]n1)OC[C@H]1O[C@@H](n2ncc3c(NC4CCC4)nc(CO)nc32)[C@H](O)[C@@H]1O` (stereo partly drawn) [Example 17, (2-(((2R,3S,4R,5R)-5-(4-(cyclobutylamino)-6-(hydroxymethyl)-1H-pyrazolo[3,4-d]pyrimidin-1-yl)-3,4-dihydroxytetrahydrofuran-2-yl)methoxy)-1-hydroxy-3-(2H-tetrazol-5-yl)propan-2-yl)phosphonic acid] was tested, and the IC50 was ≤ 0.01 µM.
